From patent publication US20130065760A1, “Substituted Pyridines Having Herbicidal Action” (BASF SE, priority 2010, published 2013)

Test system: AMARE
Test: greenhouse experiment, post-emergence treatment, herbicidal activity
Format: in vivo, Amaranthus retroflexus
Conditions: post-emergence method, application rate 0.5 kg/ha, scale from 0 to 100
Text: The seeds of the test plants were sown separately for each species. For the post-emergence treatment, the test plants were first grown to a height of 3 to 15 cm, depending on the plant habit, and only then treated with the active ingredients which had been suspended or emulsified in water. For this purpose, the test plants were either sown directly and grown in the same containers, or they were first grown separately as seedlings and transplanted into the test containers a few days prior to treatment. Depending on the species, the plants were kept at 10-25° C. or 20-35° C. The test period extended over 2 to 4 weeks. During this time, the plants were tended, and their response to the individual treatments was evaluated. Evaluation was carried out using a scale from 0 to 100. 100 means no emergence of the plants, or complete destruction of at least the aerial moieties, and 0 means no damage, or normal course of growth. A good herbicidal activity is given at values of at least 70 and a very good herbicidal activity is given at values of at least 85. The plants used in the greenhouse experiments belonged to the following species: [table]

3-[5-chloro-3-morpholino-2-(trifluoromethyl)phenyl]-1-(2,2-difluoroethyl)-4-hydroxy-1,5-naphthyridin-2-one [I-3]
herbicidal activity against AMARE: very good (a very good herbicidal activity is given at values of at least 85)
